The target in the first test is human NaV1.8 ion channel (Homo sapiens (Human), UniProt Q9Y5Y9). In words: Compound inhibition activity on human NaV1.8 ion channel in HEK293 cells (whole-cell patch clamp). It counts as cell-based. The note with it: 100 nm concentration; HEK293 cells, resting protocol. The procedure:
Test Case 1: Compound Inhibition Activity on Human NaV1.8 Ion Channel in HEK293 Cells
The final concentrations of the test compounds are prepared on the same day and then dissolved in extracellular solution. […] The intracellular solution (mM) contains: Aspartic acid, 140; MgCl2, 2; EGTA 11; HEPES, 10; pH 7.2 (CsOH titration). All test solutions contain 1 μM TTX.
The test solution are stored at a concentration of 3 mM in dimethyl sulfoxide (DMSO). The solutions will be dissolved in extracellular solution on the day of testing and prepared to the required concentration.
All experiments were performed at room temperature. Each cell itself is taken as the corresponding control.
At least one cell is tested per concentration.
HEK293 cell steady expressing NaV1.8 ion channel.
The intracellular fluid (mM) contains: Aspartic acid, 140; MgCl2, 2; EGTA 11; HEPES, 10; pH 7.2 (CsOH titration). […] Electrodes are drawn with PC-10 (Narishige, Japan). Recording is performed with whole-cell diaphragm clamp.
The cells are clamped at −80 mV and then depolarized to 10 mV with a sustained 10 ms square wave to give a Nav1.8 current. This procedure is repeated every 5 seconds.
For orientation: Patch clamp records ionic current or voltage across a cell membrane.
human NaV1.8 ion channel, sequence (Q9Y5Y9 whole entry): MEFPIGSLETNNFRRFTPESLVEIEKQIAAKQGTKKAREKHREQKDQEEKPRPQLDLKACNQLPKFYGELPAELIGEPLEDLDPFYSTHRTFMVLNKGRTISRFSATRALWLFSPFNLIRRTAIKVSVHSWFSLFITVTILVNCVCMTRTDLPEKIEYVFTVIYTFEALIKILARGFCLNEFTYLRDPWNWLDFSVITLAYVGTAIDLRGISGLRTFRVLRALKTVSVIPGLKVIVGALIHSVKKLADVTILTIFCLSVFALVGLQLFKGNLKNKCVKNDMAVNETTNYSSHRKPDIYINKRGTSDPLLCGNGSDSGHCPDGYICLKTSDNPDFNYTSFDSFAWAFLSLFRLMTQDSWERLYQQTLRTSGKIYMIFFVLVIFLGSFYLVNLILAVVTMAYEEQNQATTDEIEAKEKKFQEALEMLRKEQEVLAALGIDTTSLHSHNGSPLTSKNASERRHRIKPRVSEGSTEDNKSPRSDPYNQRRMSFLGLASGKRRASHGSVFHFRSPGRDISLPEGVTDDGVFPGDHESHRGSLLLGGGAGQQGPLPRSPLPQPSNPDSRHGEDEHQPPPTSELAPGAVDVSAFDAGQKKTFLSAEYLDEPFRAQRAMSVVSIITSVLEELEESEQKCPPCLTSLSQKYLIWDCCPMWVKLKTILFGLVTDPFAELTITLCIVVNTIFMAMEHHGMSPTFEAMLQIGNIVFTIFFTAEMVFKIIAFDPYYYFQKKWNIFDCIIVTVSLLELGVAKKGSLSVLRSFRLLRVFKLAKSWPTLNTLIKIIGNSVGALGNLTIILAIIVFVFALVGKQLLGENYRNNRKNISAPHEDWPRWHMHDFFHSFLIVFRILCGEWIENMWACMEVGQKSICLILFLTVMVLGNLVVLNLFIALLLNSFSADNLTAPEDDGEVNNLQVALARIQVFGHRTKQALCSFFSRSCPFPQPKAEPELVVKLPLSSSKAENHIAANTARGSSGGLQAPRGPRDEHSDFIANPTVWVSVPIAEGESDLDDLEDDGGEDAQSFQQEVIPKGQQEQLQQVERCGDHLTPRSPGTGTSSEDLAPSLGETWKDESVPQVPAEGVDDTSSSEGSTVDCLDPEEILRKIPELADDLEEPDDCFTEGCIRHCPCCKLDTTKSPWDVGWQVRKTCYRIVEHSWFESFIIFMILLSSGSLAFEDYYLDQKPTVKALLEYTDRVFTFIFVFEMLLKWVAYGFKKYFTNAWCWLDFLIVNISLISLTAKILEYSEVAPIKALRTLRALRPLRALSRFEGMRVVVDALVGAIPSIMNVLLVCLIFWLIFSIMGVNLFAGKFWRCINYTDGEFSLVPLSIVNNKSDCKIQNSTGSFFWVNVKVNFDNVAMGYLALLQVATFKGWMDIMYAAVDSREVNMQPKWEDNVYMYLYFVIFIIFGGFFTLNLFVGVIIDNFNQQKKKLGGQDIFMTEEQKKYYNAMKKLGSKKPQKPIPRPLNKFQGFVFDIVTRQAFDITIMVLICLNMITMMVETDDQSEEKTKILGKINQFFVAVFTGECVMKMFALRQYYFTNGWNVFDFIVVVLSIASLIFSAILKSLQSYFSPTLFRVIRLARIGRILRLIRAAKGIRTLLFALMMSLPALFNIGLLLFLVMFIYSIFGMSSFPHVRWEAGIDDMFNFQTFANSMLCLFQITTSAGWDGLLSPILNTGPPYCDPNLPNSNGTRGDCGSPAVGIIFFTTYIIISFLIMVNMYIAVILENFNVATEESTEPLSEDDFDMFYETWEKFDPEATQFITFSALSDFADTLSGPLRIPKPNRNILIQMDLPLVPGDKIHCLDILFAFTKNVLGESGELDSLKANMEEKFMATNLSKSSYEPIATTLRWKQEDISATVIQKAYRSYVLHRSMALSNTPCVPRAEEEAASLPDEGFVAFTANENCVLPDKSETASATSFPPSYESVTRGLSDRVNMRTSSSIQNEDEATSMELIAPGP
In the case of `Cc1cc(F)ccc1Oc1ccc(C(F)(F)F)cc1C(=O)Nc1ccc(F)c(C2CCC(C(N)=O)N2)c1` (centres unmarked) [Example 16, 5-(2-fluoro-5-(2-(4-fluoro-2-methylphenoxy)-5-(trifluoromethyl)benzamido)phenyl) pyrrolidine-2-carboxacylamino], the “Inhibition ratio of Nav1.8 (Activity of inhibition)” value is given as “D (D < 20)”.

Staying with this test, now noted: 100 nm concentration; HEK293 cells, resting protocol; read-out: Inhibition ratio of Nav1.8 (Activity of inhibition).
With `Cc1cc(F)ccc1Oc1cc(C2CC2)c(C(F)(F)F)cc1C(=O)Nc1ccc(F)c(C(N)C(=O)NCCO)c1` (centres unmarked) [Example 43], the inhibition at 0.1 µM fell in the range of 50 to 80%. Still for that read-out and setting: as for `Cc1cc(F)ccc1Oc1ccc(C(F)(F)F)cc1C(=O)Nc1ccc(F)c(CN)c1` [Example 12, N-(3-(Aminomethyl)-4-fluorophenyl)-2-(4-fluoro-2-methylphenoxy)-5-(trifluoromethyl) benzamide], the figure is 50 to 80%. As to `CC(=O)NC(CCO)c1cc(NC(=O)c2cc(C(F)(F)F)c(C3CC3)cc2Oc2ccc(F)cc2C)ccc1F` (centres unmarked) [Example 6, N-(3-(1-Acetylamino-3-hydroxypropyl)-4-fluorophenyl)-4-cyclopropyl-2-(4-fluoro-2-methylphenoxy)-5-(trifluoromethyl) benzamide], the inhibition at 0.1 µM fell in the range of 50 to 80%.

For the compound `CNC(=O)C(N)c1cc(NC(=O)c2ccc(C(F)(F)F)cc2Oc2ccc(F)cc2C)ccc1F` (centres unmarked) [Example 42], the inhibition at 0.1 µM is > 80%. Still for that read-out and setting: as for `COCCC(N)c1cc(NC(=O)c2cc(C(F)(F)F)c(C3CC3)cc2Oc2ccc(F)cc2C)ccc1F` (centres unmarked) [Example 5, N-(3-(1-Amino-3-methoxypropyl)-4-fluorophenyl)-4-cyclopropyl-2-(4-fluoro-2-methylphenoxy)-5-(trifluoromethyl) benzamide], the figure is 50 to 80%.

As for `Cc1cc(F)ccc1Oc1cc(C2CC2)c(C(F)(F)F)cc1C(=O)Nc1ccc(F)c(C(N)C(N)=O)c1` (centres unmarked) [Example 9, 4-Cyclopropyl-N-(3-(1,2-diamino-2-oxoethyl)-4-fluorophenyl)-2-(4-fluoro-2-methylphenoxy)-5-(trifluoromethyl) benzamide], the inhibition at 0.1 µM is > 80%.

For `Cc1cc(F)ccc1Oc1cc(C(F)(F)F)ccc1C(=O)Nc1ccc(F)c(C(N)CC(N)=O)c1` (centres unmarked) [Example 39], the inhibition at 0.1 µM was > 80%. Consider `Cc1cc(F)ccc1Oc1cc(C2CC2)c(C(F)(F)F)cc1C(=O)Nc1ccc(F)c(C(N)CCN)c1` (centres unmarked) [Example 24, 4-Cyclopropyl-N-(3-(1,3-diaminopropyl)-4-fluorophenyl)-2-(4-fluoro-2-methylphenoxy)-5-(trifluoromethyl) benzamide], for which the inhibition at 0.1 µM was > 80%.

On to `Cc1cc(F)ccc1Oc1ccc(C(F)(F)F)cc1C(=O)Nc1ccc(F)c(C(C)N)c1` (centres unmarked) [Example 14, N-(3-(1-aminoethyl)-4-fluorophenyl)-2-(4-fluoro-2-methylphenoxy)-5-(trifluoromethyl) benzamide], for which the inhibition at 0.1 µM lay within 50 to 80%.

As to `CNC(C(N)=O)c1cc(NC(=O)c2cc(C(F)(F)F)c(C3CC3)cc2Oc2ccc(F)cc2C)ccc1F` (centres unmarked) [Example 10, N-(3-(2-amino-1-(methylamino)-2-oxoethyl)-4-fluorophenyl)-4-cyclopropyl-2-(4-fluoro-2-methylphenoxy)-5-(trifluoromethyl) benzamide], the inhibition at 0.1 µM is > 80%. In the case of `Cc1cc(F)ccc1Oc1ccc(C(F)(F)F)cc1C(=O)Nc1ccc(F)c(C2NCCNC2=O)c1` (centres unmarked) [Example 18, 2-(4-Fluoro-2-methylphenoxy)-N-(4-fluoro-3-(3-oxopiperazin-2-yl)phenyl)-5-(trifluoromethyl) benzamide], the inhibition at 0.1 µM is < 20%. Take `Cc1cc(F)ccc1Oc1cc(C2CC2)c(C(F)(F)F)cc1C(=O)Nc1ccc(F)c(C(N)CC(N)=O)c1` (centres unmarked) [Example 37]: the inhibition at 0.1 µM was > 80%. Same read-out and setting: with `Cc1cc(F)ccc1Oc1cc(C2CC2)c(C(F)(F)F)cc1C(=O)Nc1ccc(F)c(C(N)CC(C)O)c1` (centres unmarked) [Example 20, N-(3-(1-Amino-3-hydroxybutyl)-4-fluorophenyl)-4-cyclopropyl-2-(4-fluoro-2-methylphenoxy)-5-(trifluoromethyl) benzamide] the figure was 50 to 80%. Same read-out and setting: with `Cc1cc(F)ccc1Oc1cc(C(F)(F)F)ccc1C(=O)Nc1ccc(F)c(C(N)C(N)=O)c1` (centres unmarked) [Example 41] the figure was > 80%.

The same test, now with this note: 100 nm concentration; HEK293 cells, resting protocol; read-out: Inhibition ratio of compounds against Nav1.8 (Activity of inhibition).
As for `Cc1cc(F)ccc1Oc1cc(C2CC2)c(C(F)(F)F)cc1C(=O)Nc1ccc(F)c(C(C)CC(N)=O)c1` (centres unmarked) [Example 48, N-(3-(4-Amino-4-oxobutan-2-yl)-4-fluorophenyl)-4-cyclopropyl-2-(4-fluoro-2-methylphenoxy)-5-(trifluoromethyl) benzamide], the inhibition at 0.1 µM was > 80%. Take `Cc1cc(F)ccc1Oc1cc(C2CC2)c(C(F)(F)F)cc1C(=O)Nc1ccc(F)c(OCC(O)CNC(=O)CO)c1` (centres unmarked) [Example 65, 4-Cyclopropyl-2-(4-fluoro-2-methylphenoxy)-N-(4-fluoro-3-(2-hydroxy-3-(2-hydroxyacetylamino)propoxy)phenyl)-5-(trifluoromethyl) benzamide]: the inhibition at 0.1 µM was > 80%. On the same count and under the same terms, with `Cc1cc(F)ccc1Oc1cc(C2CC2)c(C(F)(F)F)cc1C(=O)Nc1ccnc(C(C)(C)O)c1` [Example 70] the figure was 20 to 50%. Same read-out and setting: as for `Cc1cc(F)ccc1Oc1cc(C2CC2)c(C(F)(F)F)cc1C(=O)Nc1ccc(F)c(OCC2CNCCO2)c1` (centres unmarked) [Example 80], the figure is 50 to 80%; as for `Cc1cc(F)ccc1Oc1cc(C2CC2)c(C(F)(F)F)cc1C(=O)Nc1ccc(F)c(OCC(O)CNC2CC2)c1` (centres unmarked) [Example 78], > 80%; as for `Cc1cc(F)ccc1Oc1ccc(C(F)(F)F)cc1C(=O)Nc1ccnc(OC[C@H](O)CO)c1` [Example 122], 50 to 80%. Consider `Cc1cc(F)ccc1Oc1cc(C2CC2)c(C(F)(F)F)cc1C(=O)Nc1cnnc(OCC(O)CO)c1` (centres unmarked) [Example 102], for which the inhibition at 0.1 µM was in the range of 50 to 80%. The same measure, in the same setting: with `Cc1cc(F)ccc1Oc1cc(C2CC2)c(C(F)(F)F)cc1C(=O)Nc1ccc(F)c(C(F)CN)c1` (centres unmarked) [Example 47, N-(3-(2-Amino-1-fluoroethyl)-4-fluorophenyl)-4-cyclopropyl-2-(4-fluoro-2-methylphenoxy)-5-(trifluoromethyl) benzamide] the figure was 50 to 80%; with `Cc1cc(F)ccc1Oc1cc(C(F)(F)F)ccc1C(=O)Nc1ccc(F)c(OCC(O)CNC(=O)CO)c1` (centres unmarked) [Example 107], 50 to 80%; with `Cc1cc(F)ccc1Oc1cc(C(F)(F)F)c(Cl)cc1C(=O)Nc1cnnc(OCC(O)CO)c1` (centres unmarked) [Example 101], 50 to 80%. On the same count and under the same terms, as for `Cc1cc(F)ccc1Oc1cc(C2CC2)c(C(F)(F)F)cc1C(=O)Nc1ccc(F)c(OCC(O)CNC23CC4CC(CC(C4)C2)C3)c1` (centres unmarked) [Example 94], the figure is 50 to 80%; as for `Cc1cc(F)ccc1Oc1cc(C2CC2)c(C(F)(F)F)cc1C(=O)Nc1ccc(F)c(C(C)C(O)CNC(C)(C)C)c1` (centres unmarked) [Example 55, N-(3-(4-(tert-butylamino)-3-hydroxybutan-2-yl)-4-fluorophenyl)-4-cyclopropyl-2-(4-fluoro-2-methylphenoxy)-5-(trifluoromethyl) benzamide], > 80%; as for `Cc1cc(F)ccc1Oc1cc(C2CC2)c(C(F)(F)F)cc1C(=O)Nc1ccc(F)c(OCCNS(C)(=O)=O)c1` [Example 59, 4-cyclopropyl-2-(4-fluoro-2-methylphenoxy)-N-(4-fluoro-3-(2-(methylsulfonamido)ethoxy)phenyl)-5-(trifluoromethyl) benzamide], 20 to 50%. In the case of `Cc1cc(F)ccc1Oc1cc(C2CC2)c(C(F)(F)F)cc1C(=O)Nc1ccc(F)c(OCC2CCCN2)c1` (centres unmarked) [Example 68], the inhibition at 0.1 µM was 20 to 50%. Same read-out and setting: with `Cc1cc(F)ccc1Oc1cc(C(F)(F)F)ccc1C(=O)Nc1ccnc(OC[C@H](O)CO)c1` [Example 108] the figure was 50 to 80%. Same read-out and setting: with `COc1ccc(NCC(O)COc2cc(NC(=O)c3cc(C(F)(F)F)c(C4CC4)cc3Oc3ccc(F)cc3C)ccc2F)cc1` (centres unmarked) [Example 95] the figure was 20 to 50%; with `Cc1cc(F)ccc1Oc1cc(C2CC2)c(C(F)(F)F)cc1C(=O)Nc1ccc(F)c(C2CCNC(=O)CN2)c1` (centres unmarked) [Example 50], 20 to 50%. On to `Cc1cc(F)ccc1Oc1cc(C2CC2)c(C(F)(F)F)cc1C(=O)Nc1ccc(F)c(OCC(O)CNC23CC(C2)C3)c1` (centres unmarked) [Example 93], for which the inhibition at 0.1 µM lay within 50 to 80%. On the same count and under the same terms, with `Cc1cc(F)ccc1Oc1cc(C2CC2)c(C(F)(F)F)cc1C(=O)Nc1ccc(F)c(OCC(O)C(F)(F)F)c1` (centres unmarked) [Example 60, 4-cyclopropyl-2-(4-fluoro-2-methylphenoxy)-N-(4-fluoro-3-(3,3,3-trifluoro-2-hydroxypropoxy)phenyl)-5-(trifluoromethyl) benzamide] the figure was < 20%. Same read-out and setting: as for `Cc1cc(F)ccc1Oc1cc(C2CC2)c(C(F)(F)F)cc1C(=O)Nc1ccc(F)c(C(CCO)NS(C)(=O)=O)c1` (centres unmarked) [Example 73], the figure is 20 to 50%; as for `COc1cc(OC(F)(F)F)ccc1Oc1cc(C(F)(F)F)c(Cl)cc1C(=O)Nc1ccnc(OC[C@H](O)CO)c1` [Example 121], > 80%. Same read-out and setting: as for `Cc1cc(F)ccc1Oc1cc(C2CC2)c(C(F)(F)F)cc1C(=O)Nc1ccc(F)c(OCC(O)CO)c1` (centres unmarked) [Example 90], the figure is 50 to 80%; as for `Cc1cc(F)ccc1Oc1cc(C(F)(F)F)c(Cl)cc1C(=O)Nc1ccc(F)c(OCC(O)CNC(C)C)c1` (centres unmarked) [Example 106], > 80%.

The values above are taken from patent publication US20230303497A1, “BENZYLAMINE OR BENZYL ALCOHOL DERIVATIVE AND USES THEREOF” (CHENGDU HYPERWAY PHARMACEUTICALS CO., LTD, priority 2020, published 2023).
